Several values for one entry are separate records, joined by “and”; a condition that tells them apart may be missing. Identical values can stand only once. Entries after “also recorded” stand apart in the source; their conditions may differ. Like-named read-outs stand apart in the source and are kept apart here.
Columns and labels:
HepG2 cell line [1] = settings: human, 72 h
[2] = system: L. infantum axenic amastigotes; assay: Antileishmanial activity on L. infantum axenic amastigotes; assay type: cell-based, Leishmania infantum; settings: for Activity toward L. infantum (in words): axenic amastigotes
Method: Experiments were performed at room temperature
The supporting electrolyte
The redox potentials measured (V/SCE) correspond […]
in a ventilated flask to transform promastigotes into axenic amastigotes. The amastigote stage was checked both by electron microscopy (short flagellum with small bulbous tip extending beyond a spherical cell body) and RT-PCR for confirming the overexpression of ATG8 and amastin genes in amastigotes, compared to promastigotes. The effects of the tested compounds on the growth of L. infantum axenic amastigotes were assessed as follows. L. infantum amastigotes were incubated at a density of 2 × 10^6 parasites/mL in sterile 96-well plates with various concentrations of compounds dissolved in DMSO (final concentration less than 0.5% v/v), in duplicate. Appropriate controls DMSO, amphotericin B, miltefosine and fexinidazole (reference drugs purchased from Sigma Aldrich) were added to each set of experiments. After a 48 h incubation period at 37 °C, each plate-well was then microscopically-examined to detect any precipitate formation. To estimate the luciferase activity of axenic amastigotes, 80 µL of each well were transferred to white 96-well plates, Steady Glow® reagent (Promega) was added according to manufacturer's instructions, and plates were incubated for 2 min. The luminescence was measured in Microbeta Luminescence Counter (PerkinElmer). Efficient […]
metabolic activity of L. infantum amastigotes compared to control. EC 50 values were calculated by non- […]
values represent the mean of three independent experiments.
Antileishmanial activity on L. donovani promastigotes NTR1 and NTR2 over-expressing strain.
Cell lines and culture conditions: The clonal Leishmania donovani cell line LdBOB (derived from MHOM/SD/62/1S-CL2D) was grown as promastigotes at 26 °C in modified M199 media, as previously described.[2] LdBOB promastigotes overexpressing NTR1 (LinJ.05.0660) and NTR2 (LinJ.12.0730) were grown in the presence of nourseothricin (100 µg/mL). To examine the effects of test compounds on growth, triplicate promastigote cultures were seeded with 5 × 10^4 parasites/mL. Parasites were grown in 10 ml cultures in the presence of drug for 72 h, after which 200 μL aliquots of each culture were added to 96-well plates, 50 μM resazurin was added to each well and fluorescence (excitation of 528

[3] = Redox potentials by cyclic voltammetry in DMSO; settings: 13 vs hit 2; 9, hit 1 and 2 vs pharmacophore; 10 vs 9; 5 vs 2
in vitro = settings: human, Cytotoxicity HepG2 CC50
[4] = system: T. brucei brucei trypomastigotes; assay: Antitrypanosomal activity on T. brucei brucei trypomastigotes (AnTat 1.9, Alamar Blue); assay type: cell-based, Trypanosoma brucei brucei; settings: for Selectivity index regarding T. b. brucei: HepG2 CC50 versus T. b. brucei EC50; for Antitrypanosomal activity against T. b. brucei (in words): trypomastigotes; for EC50: Trypanosoma brucei, read-out: T. b. brucei trypomastigotes EC50
[5] = PAMPA assay using a blood-brain barrier (BBB) model; assay type: in vitro ADME; settings: tested concentration 100 µM, pH 7.4
[6] = system: Trypanosoma brucei brucei trypomastigotes wild type; assay: T. brucei trypomastigotes, wild type strain (S427); assay type: cell-based
Method: Cells overexpressing NTR were
Cell densities were determined after culture for 72 h, as previously described. EC50 values were determined using GraFit as described above.
Cytotoxic evaluation on HepG2 cell line.
Briefly, cells (1 × 10^5 cells/mL) in 100
Each plate-well was then microscope-examined […]
for 2 h at 37 °C and 5% CO2. […]
added to dissolve the resulting formazan crystals. Plates were shaken vigorously (300 rpm) for 5 min.

HepG2 cell line [7] = assay: Alkaline comet assay on HepG2 cells; assay type: cell-based, human; settings: HepG2, 1 and 10 μM, 2 or 72 h of incubation
Source text: Even though many safe nitroaromatic molecules are today on the market (for example, antiprotozoal 5-nitroimidazoles such as metronidazole, several antihypertensive dihydropyridines like nicardipine, some benzodiazepines like loprazolam, anti-Parkinson’s catechol O-methyltransferase (COMT) inhibitors like entacapone, antiandrogens like flutamide, anti-inflammatory nimesulide, immunomodulating azathioprine, anticoagulant acenocoumarol, anthelminthic niclosamide, etc.) or in clinical trials (for instance, delamanid), drugs including a nitroaromatic moiety suffer from a bad reputation as possible mutagenic or genotoxic molecules, which narrows their pharmaceutical development.[29] The Ames test is the most commonly used assay to evaluate the mutagenic potential of compounds, using Salmonella typhimurium strains. […] Thus it is accepted that the comet assay or the micronucleus assay are more pertinent methods to evaluate the genotoxic potential of nitroaromatic compounds. For example, fexinidazole is positive in the Ames test but negative in the micronucleus assay.[31] A comet assay was then performed on the HepG2 cell line with hit compound 12, using methylmethanesulfonate (MMS) as a positive control (see the Supporting Information).
Electrophoresis (with a solution which contained
28 V (resulting in 0.8 V/cm).
After staining with SYBR®
Prague Czech Republic). […] The median […]

[8] = In vivo pharmacokinetics in the mouse after oral administration; settings: oral 25 mg/kg
Method: Finally, the in vivo pharmacokinetic parameters were determined in the mouse, after oral administration at 25 mg/kg in a mixture of 5% Tween 80 and 95% of 0.5% carboxymethylcellulose in water, by using the QuEChERS method.[32] Monolix Lixoft software was used to analyze the data by a noncompartmental model to fit pharmacokinetics parameters.[33] […]
acetonitrile with 0.1% formic acid. […] The […]
decrease to 2% (B); 2.6 < t < 4 min, 2% (B). Carbamazepine, oxazepam, warfarine and diclofenac are […]
The unbound fraction (fu) is […]
internal standard (propranolol 200 nM).
= 350 μL and Vplasma = 200 μL).
All animals were kept under the same
3, 6, 9, 12, and 24h after administration. Blood samples were stored frozen until required for assay.
Sample preparation for spectrometry analysis
Megazol was used like the internal standard (IS). LC-MS Optima grade Acetonitrile (ACN) and […]
sesquihydrate) were supplied by VWR.

[9] = Tolerance in the mouse after oral administration
HepG2 cell line [10] = settings: read-out: Cytotoxicity HepG2 CC50, cited from earlier work
[11] = design: method as in PMID 21200426; settings: cited from earlier work
[12] = system: Salmonella typhimurium strains; settings: cited from earlier work
[13] = system: L. infantum axenic amastigotes; settings: previously reported pharmacophore and hit compounds; read-out: L. infantum axenic amastigote EC50; cited from earlier work
human albumin = assay: Human albumin binding assay; assay type: in vitro ADME
Method: are kept at 4 °C for immediate analysis or placed at -80 °C in case of postponement of the analysis.
Controls (t0 and tfinal) in triplicate are prepared by incubation of the internal standard with microsomes denatured by acetonitrile. The LC-MS used for this study is a Waters® Acquity I-Class / Xevo TQD, equipped with a Waters® Acquity BEH C18 column, 50 x 2.1 mm, 1.7 μm. The mobile phases are (A) […]
The injection volume is 1 µL and […]
the flow rate is 600 µL/min.
98% (B); […]; 2.6 < t < 4 min, 2% (B). Compound 8-bromo-6- […]
chloro-3-nitro-2-(phenylsulfonylmethyl)imidazo[1,2-a]pyridine is used as internal standard. The quantification of each compound is obtained by converting the average of the ratios of the analyte/internal standard surfaces to the percentage of consumed product. The ratio of the control at t0 corresponds to 0% of product consumed. The calculation of the half-life (t1/2) of each compound in the […]
presence of microsomes is done according to the equation: . Where k is the first-order t1=k […]
degradation constant (the slope of the logarithm of compound concentration versus incubation time).
The intrinsic clearance in vitro (Cl int expressed in μL/min/mg) is calculated according to the equation:
Clint= [microsomes]. […]

[14] = system: T. brucei brucei trypomastigotes; settings: previously reported pharmacophore and hit compounds; cited from earlier work
[15] = female, Swiss, whole blood of mouse, n = 4

COc1cccc2c1C(=O)c1c(O)c3c(c(O)c1C2=O)C[C@@](O)(C(=O)CO)C[C@@H]3O[C@H]1C[C@H](N)[C@H](O)[C@H](C)O1 [Doxorubicin, reference compound] gave a CC50 (HepG2 cell line [1]) of 0.2 ± 0.02 µM.
For COc1ccc2cc(C(F)(F)F)cc([N+](=O)[O-])c2n1 [Compound 5], the “Activity toward L. infantum (in words)” value [2] was “inactive” and the “Shift of the E° value versus the comparator compound” value (shortened to “Shift”) [3] was −0.36 V.
For O=c1ccc2cc(C(F)(F)F)cc([N+](=O)[O-])c2[nH]1 [Compound 2], the CC50 at 72 h (in vitro) was 28 to 41 µM and the “Shift” value [3] was “+0.15 V”.
For O=c1[nH]c2c([N+](=O)[O-])cc(C(F)(F)F)cc2cc1Br [Compound 7], the “Selectivity index (antileishmanial)” value ([2]; regarding L. infantum, HepG2) was greater than 10, the “Selectivity index regarding T. b. brucei” value [4] was greater than 200 and the “BBB PAMPA assay Pe” value [5] was 45.03 ×10⁻⁶ cm/s and 45.03 ± 17.05 ×10⁻⁶ cm/s.
With Nc1cc(C(F)(F)F)cc2cc(Br)c(=O)[nH]c12 [Compound 8] the “Activity toward L. infantum (in words)” value [2] was “inactive”.
With O=c1ccc2cc(C(F)(F)F)ccc2[nH]1 [Compound 1] the “Activity toward L. infantum (in words)” value [2] was “inactive” and the “Antitrypanosomal activity against T. b. brucei (in words)” value (“Antitrypanosomal activity” for short) [4] was “inactive”.
For O=c1[nH]c2c([N+](=O)[O-])cc(Br)cc2cc1Cl [Compound 12], the “Times more active than 3-chloro-analogue A” value ([4]; T. b. brucei trypomastigotes) was 100, the EC50 [4] was 0.012 to 0.05 µM and the “Activity compared with nifurtimox against T. b. brucei” value [6] was “six times more active than nifurtimox”. For the same molecule, the “BBB PAMPA assay Pe” value [5] was 40.51 ×10⁻⁶ cm/s and 40.51 ± 6.93 ×10⁻⁶ cm/s, the “Comet assay (genotoxicity)” value (HepG2 cell line [7]) was “not genotoxic; also recorded: lack of genotoxicity; also recorded: Negative” and the half-life at 24 h ([8]; female, Swiss, plasma, mouse, read-out: Plasmatic half life (converted)) was 2.9 h. It also gave an AUC(0-inf) [8, 15] of 123 µg·h/mL, a Cmax [8, 15] of 17400 ng/mL and a Tmax [8, 15] of 1.5 h. The half-life [8, 15] was 2.87 h, the Clairance ([8]; whole blood of mouse, n = 4) was 0,00768 mL/h and the “Times more cytotoxic than reference drugs” value (HepG2 cell line [1]) was “about 10”. The “Tolerance, repeated dose” value ([9]; 25 mg/kg once daily for 5 days) was “well tolerated without any adverse effect noted”, the “Organ lesions after euthanasia” value ([9]; kidney, liver, brain, heart, lung) was “no lesions were found” and the “Tolerance, oral dose” value ([9]; once daily oral dose at 25 or 50 mg/kg) was “well tolerated”.
In the case of O=c1[nH]c2c([N+](=O)[O-])cccc2cc1Cl [A, 3-chloro-8-nitroquinolin-2(1H)-one], the CC50 (HepG2 cell line [10]; 3-chloro analogue A) is listed as 85 ± 4 µM.
In the case of O=c1ccc2cc(Br)cc([N+](=O)[O-])c2[nH]1 [Compound 9], the “Selectivity index regarding T. b. brucei” value [4] is reported as greater than 200, the “Times more active than 3-bromo-position isomer (hit 1)” value ([4]; T. b. brucei trypomastigotes) is reported as 27 and the “Times more active than the 8-nitroquinolin-2(1H)-one pharmacophore” value ([4]; T. b. brucei trypomastigotes) is reported as 334. For the same molecule, the CC50 at 72 h (in vitro) was 28 to 41 µM and the “Shift” value [3] was “+0.14 V”.
In the case of CSc1ccc(OCc2ncc([N+](=O)[O-])n2C)cc1 [Fexinidazole], the Micronucleus assay [11] is given as “negative” and the Ames test [12] is given as “positive”.
In the case of O=C(O)c1ccc(-c2cc3cccc([N+](=O)[O-])c3[nH]c2=O)cc1 [Hit 2], the EC50 [13] is given as greater than 100 µM.
With O=c1[nH]c2c([N+](=O)[O-])cc(Cl)cc2cc1Cl [Compound 11] the “Selectivity index regarding T. b. brucei” value [4] was greater than 200.
For O=c1[nH]c2ccc(C(F)(F)F)cc2cc1Cl [Compound 3], the “Activity toward L. infantum (in words)” value [2] was “inactive” and the “Antitrypanosomal activity” value [4] was “inactive”.
In the case of O=C(O)c1ccc(-c2cc3cc(Br)cc([N+](=O)[O-])c3[nH]c2=O)cc1 [Compound 13], the “Selectivity index regarding T. b. brucei” value [4] is reported as greater than 200, the Albumin binding assay (human albumin) is reported as greater than 99% and the “BBB PAMPA assay Pe” value [5] is reported as 1.27 ×10⁻⁶ cm/s and 1.27 ± 0.09 ×10⁻⁶ cm/s. The “Shift” value [3] was “+0.16 V”.
In the case of O=c1[nH]c2c([N+](=O)[O-])cccc2cc1Br [Hit 1], the EC50 [13] is listed as 7.1 ± 1.5 µM, the EC50 [14] is listed as 1.9 ± 0.4 µM and the CC50 (HepG2 cell line [10]; previously reported pharmacophore and hit compounds) is listed as 92 ± 13 µM. The “Shift” value [3] was “+0.09 V”.
For O=c1[nH]c2c([N+](=O)[O-])cc(Br)cc2cc1Br [Compound 10], the “Selectivity index regarding T. b. brucei” value [4] was greater than 200, the EC50 [4] was 0.012 to 0.05 µM and the CC50 at 72 h (in vitro) was 17 µM. For the same molecule, the “Shift” value [3] was “+0.03 V”.
With O=c1[nH]c2ccc(C(F)(F)F)cc2cc1Br [Compound 4] the “Activity toward L. infantum (in words)” value [2] was “inactive” and the “Antitrypanosomal activity” value [4] was “inactive”.

— article PMC7153024, “New 8-Nitroquinolinone Derivative Displaying Submicromolar in Vitro Activities against Both Trypanosoma brucei and cruzi” (ACS Medicinal Chemistry Letters, 2020)
